The results in this text go back to patent publication US20170224613A1, “HYDROGEL COMPOSITIONS, METHODS FOR PREPARING THE SAME AND USES THEREOF” (CHONGQING MJ MEDICAL DEVICES CO., LTD., priority 2014, published 2017).

The test system of the series is healthy volunteers. As to the kind of experiment: Testing in healthy volunteers: warming sensation, cooling sensation, skin irritation on forearm. The class given is in vivo, human. The conditions noted are these: at 11 wt % based on the total weight of the hydrogel composition.

Procedure: In a pilot study to evaluate the hydrogel composition formulations, the different hydrogel prototypes (with a gauze on which the respective hydrogel composition was disposed) of Examples 2 (called gel B in Table 3) and 6 (called gel C in Table 3) and Comparative Example 1 (called gel A in Table 3) were tested on 8 healthy volunteers (M:F=5:3, ages 27-64), respectively. […] Three clinical parameters were considered including the cooling sensation, the warming sensation and irritation/erythema on the applied skin area. In this pilot study, each participant has applied the topical hydrogels (120 mm×100 mm×5 mm; 70 g) on to their forearm (one gel per forearm at a time) and scored their subjective warming and cooling sensations at 5, 10, 20, and 30 min after hydrogel application according to Table 2. The skin irritation reaction was also examined and scored by a researcher according to Table 2.

For the molecule `COC(=O)c1ccccc1O` [Methyl salicylate, methyl salicylate], the “irritation by methyl salicylate in hydrogel” value is “showed irritation”.
